The structures appear in SMILES notation.

For the first test, the target named is T1, NaV1.7 (Homo sapiens, UniProt Q15858).
T1 construct: expressed in transfected cells; host or cells: HEK293, tetracycline-inducible
T1 sequence (Q15858 whole entry): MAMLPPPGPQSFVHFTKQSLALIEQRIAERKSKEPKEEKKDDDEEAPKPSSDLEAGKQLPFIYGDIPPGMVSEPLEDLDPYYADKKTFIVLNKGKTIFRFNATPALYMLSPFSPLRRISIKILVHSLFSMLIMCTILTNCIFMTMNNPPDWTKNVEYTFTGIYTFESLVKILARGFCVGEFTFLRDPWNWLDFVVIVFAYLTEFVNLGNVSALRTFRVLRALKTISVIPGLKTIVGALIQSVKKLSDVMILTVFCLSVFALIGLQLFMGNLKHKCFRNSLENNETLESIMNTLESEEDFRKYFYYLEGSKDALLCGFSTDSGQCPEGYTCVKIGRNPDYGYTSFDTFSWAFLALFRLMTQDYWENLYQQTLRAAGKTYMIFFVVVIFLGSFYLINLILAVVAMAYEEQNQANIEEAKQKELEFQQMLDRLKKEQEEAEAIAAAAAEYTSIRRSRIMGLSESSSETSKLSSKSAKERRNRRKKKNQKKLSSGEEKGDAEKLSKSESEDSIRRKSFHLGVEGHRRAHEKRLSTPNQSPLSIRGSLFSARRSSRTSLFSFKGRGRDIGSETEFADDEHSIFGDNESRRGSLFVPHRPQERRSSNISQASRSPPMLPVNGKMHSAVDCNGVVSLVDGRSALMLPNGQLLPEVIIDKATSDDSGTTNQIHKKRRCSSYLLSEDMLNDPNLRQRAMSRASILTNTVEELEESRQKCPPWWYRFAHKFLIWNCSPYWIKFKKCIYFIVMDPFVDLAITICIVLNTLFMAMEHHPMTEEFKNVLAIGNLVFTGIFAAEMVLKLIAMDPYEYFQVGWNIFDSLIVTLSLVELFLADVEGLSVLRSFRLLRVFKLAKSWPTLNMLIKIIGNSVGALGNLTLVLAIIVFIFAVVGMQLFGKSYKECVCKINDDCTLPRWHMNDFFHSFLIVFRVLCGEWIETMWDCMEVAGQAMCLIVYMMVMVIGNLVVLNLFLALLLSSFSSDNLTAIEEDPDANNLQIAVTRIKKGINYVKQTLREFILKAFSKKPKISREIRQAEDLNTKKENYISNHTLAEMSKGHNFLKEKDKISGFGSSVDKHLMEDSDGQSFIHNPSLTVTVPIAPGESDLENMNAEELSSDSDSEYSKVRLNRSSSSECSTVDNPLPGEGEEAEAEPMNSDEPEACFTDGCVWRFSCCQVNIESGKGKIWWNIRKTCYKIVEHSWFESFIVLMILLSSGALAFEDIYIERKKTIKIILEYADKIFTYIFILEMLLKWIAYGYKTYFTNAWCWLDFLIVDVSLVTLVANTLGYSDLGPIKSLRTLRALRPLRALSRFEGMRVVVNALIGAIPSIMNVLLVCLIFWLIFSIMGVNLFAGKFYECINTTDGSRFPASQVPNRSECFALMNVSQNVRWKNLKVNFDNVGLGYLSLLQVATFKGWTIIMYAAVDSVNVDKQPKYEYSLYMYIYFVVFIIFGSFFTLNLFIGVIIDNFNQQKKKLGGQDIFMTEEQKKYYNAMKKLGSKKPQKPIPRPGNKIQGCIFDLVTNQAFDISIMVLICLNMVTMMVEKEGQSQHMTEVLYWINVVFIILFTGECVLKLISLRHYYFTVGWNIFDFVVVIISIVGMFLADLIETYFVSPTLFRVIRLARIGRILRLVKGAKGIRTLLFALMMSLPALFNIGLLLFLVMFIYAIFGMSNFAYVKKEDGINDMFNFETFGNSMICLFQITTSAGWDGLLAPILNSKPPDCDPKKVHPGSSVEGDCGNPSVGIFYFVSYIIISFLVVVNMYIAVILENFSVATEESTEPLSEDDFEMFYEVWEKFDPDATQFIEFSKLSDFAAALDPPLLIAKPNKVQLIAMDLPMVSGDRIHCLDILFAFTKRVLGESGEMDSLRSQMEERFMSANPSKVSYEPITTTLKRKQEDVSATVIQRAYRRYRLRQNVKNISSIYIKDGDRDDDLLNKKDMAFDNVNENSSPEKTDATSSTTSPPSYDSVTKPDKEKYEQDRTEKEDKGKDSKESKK
The experiment in a line: Whole cell patch clamp, internal block of NaV1.7 current. It is filed as cell-based. The settings on record: % inhibition at 1 μM test concentration, compound in internal solution, manual whole cell patch clamp. The protocol: NaV1.7 was expressed upon induction with tetracycline. Cells were cultured in DMEM containing 10% dialyzed Fetal Bovine Serum (VWR, Radnor, Pa.), 1% Glutamax (VWR, Radnor, Pa.), 1% Penicillin-Streptomycin (VWR, Radnor, Pa.), 100 mg/L Hygromycin (Thermo Fisher Scientific, Waltham, Mass. and 5 mg/L Blasticidin (Alfa Aesar, Haverhill, Mass.). Cells were grown and maintained at 37° C. in a humidified environment containing 10% C02 in air. Cells were detached from the culture flask for passage and harvested using 0.05% Trypsin-EDTA (Thermo Fisher Scientific, Waltham, Mass.). To induce NaV1.7, cells were induced with tetracycline (0.1-1 μg/mL, IBI Scientific, Peosta, Iowa) the day before recording and plated onto 24-well plates. Cells were washed with DPBS (VWR, Radnor, Pa.), trypsinized and then triturated five times in 10 mL of growth media to break apart cell aggregates. For one 24-well plate, 2 mL of cell suspension was mixed with 23 mL of fresh growth media and 0.1-1 μg/mL tetracycline added. 1 ml of mixed media with cells was then added to each well of a 24-well plate, with a 12 mm coverslip already placed in the bottom of the well. Cells were then incubated in 37° C. and 10% CO2 overnight.
The intracellular solution contained the following (in mM) CsCl 135, NaCl 10, EGTA 10, HEPES 10, MgCl2 2, adjusted to pH 7.2 with CsOH. The external solution was a normal Ringer solution containing (in mM) NaCl 155, HEPES 10, glucose 10, KCl 3.5, CaCl2 1.5, MgCl2 1 adjusted to pH 7.4 with NaOH. CsCl is from Alfa Aesar, Haverhill, Mass. All other chemicals are from Sigma-Aldrich, St. Louis, Mo. In order to test the degree of internal block by test compounds the compounds were dissolved in internal solution at the indicated test concentration. […] In order to test the degree of external block by test compounds the compounds were dissolved in external solution at the indicated test concentration.
18-24 hours after cells were induced with tetracycline, coverslips were placed into a chamber filled with Normal Ringer solution at room temperature and the chamber placed on a microscope. Pipettes were pulled from borosilicate glass on a P97 puller (Sutter Instrument, Novato, Calif.) and polished with a MF-830 Microforge (Narishige International USA, Inc, Amityville, N.Y.) to have a resistance of 1.5-2.5 MΩ when filled with CsCl internal solution at room temperature. Healthy cells (those that are round and translucent with no visible blemishes) were chosen for seal formation. A seal was formed between the pipette and the cell, and a brief pulse of suction was used to “break in” and establish the whole-cell configuration. The membrane potential was held at −100 mV before the voltage protocol began. Only cells with series resistance between 1.5-5 MΩ were retained for analysis. The voltage protocol was as follows: Cells were held at −100 mV for 12 ms followed by a hyperpolarizing step to −105 mV for 12 ms to monitor the leak. Cells were then stepped back to −100 mV for 40 ms. Cells were then depolarized to −20 mV for 10 ms and then returned to −100 mV for 26 ms (The FIGURE).
Once the recording was started, the voltage protocol was run at 30 second intervals for 5 minutes to get a stable baseline. This was followed by four 30-second periods of 5 Hz stimulation of the same voltage protocol separated by 1 minute of rest which was then followed by 0.33 Hz stimulation after the last train. Currents were recorded using PatchMaster software with Heka EPC10 (HEKA Electronics, Lambrecht, Germany). Only cells with inward current amplitudes at −20 mV between 400 pA and 4 nA were accepted. In addition, cells having leak currents greater than 10% of their current amplitudes were discarded.
The data was plotted using the Patchmaster software (HEKA Electronics, Lambrecht, Germany) and analyzed by plotting the minimum current during the voltage step to −20 mV (peak inward current) as a function of time. […]
On to `COC(=O)c1cccc(C)c1NC(=O)C[N+]1(Cc2ccccc2)CCCC(C(=O)NC2CCCC2)C1.[Br-]` (stereo not drawn) [Compound 41], for which the “NaV1.7 Intracellular Inhibition” value was “+ (<30%)”.

For the compound `Cc1cccc(C(=O)OC(C)(C)C)c1NC(=O)C[n+]1cccc(-c2ccccc2)c1.[Br-]` [Compound 71], the “NaV1.7 Intracellular Inhibition” value is “++ (70-30%)”.

In the case of `COC(=O)c1cccc(C)c1NC(=O)C[N+]1(Cc2ccccc2)CCCC(C(=O)NC(C)C)C1.[Br-]` (stereo not drawn) [Compound 32], the “NaV1.7 Intracellular Inhibition” value is reported as “++ (70-30%)”.

Turning to `CCOC(=O)C1CCC[N+](CC(=O)Nc2c(C)cccc2C(=O)OC)(Cc2ccccc2)C1` (mixture of isomers) [Compound 16], the “NaV1.7 Intracellular Inhibition” value is “+++ (90-70%)”.

Consider `CC[N+]1(CC(=O)Nc2c(C)cccc2C(=O)OC)CCCC(C(=O)N2CCCC2)C1` (mixture of isomers) [Compound 54], for which the “NaV1.7 Intracellular Inhibition” value is reported as “++ (70-30%)”.

For the compound `COC(=O)c1cccc(C)c1NC(=O)C[N+]1(Cc2ccccc2)CCCCC1.[Br-]` [Compound 3], the “NaV1.7 Intracellular Inhibition” value is given as “++ (70-30%)”.

With `CCNC(=O)C1CCC[N+](CC(=O)Nc2c(C)cccc2C(=O)OC)(Cc2ccccc2)C1.O=C([O-])C(F)(F)F` (stereo not drawn) [Compound 33], the “NaV1.7 Intracellular Inhibition” value is “++ (70-30%)”.

Consider `CCCOC(=O)c1cccc(C)c1NC(=O)C[N+]1(Cc2ccccc2)CCCCCC1.[Br-]` [Compound 6], for which the “NaV1.7 Intracellular Inhibition” value was “+++ (90-70%)”.

With `CCCCOC(=O)C1CCC[N+](CC(=O)Nc2c(C)cccc2C(=O)OC)(Cc2ccccc2)C1.[Br-]` (mixture of isomers) [Compound 14], the “NaV1.7 Intracellular Inhibition” value is reported as “++ (70-30%)”.

For `COC(=O)c1cccc(C)c1NC(=O)C[N+]1(Cc2ccccc2)CCCC(C(N)=O)C1.[Br-]` (stereo not drawn) [Compound 30], the “NaV1.7 Intracellular Inhibition” value is recorded as “++ (70-30%)”.

In the case of `CC[N+]1(CC(=O)Nc2c(C)cccc2C(=O)OC)CCCC(C(=O)N2CCCCC2)C1.[I-]` (stereo not drawn) [Compound 45], the “NaV1.7 Intracellular Inhibition” value is “++ (70-30%)”.

Regarding `COC(=O)c1cccc(C)c1NC(=O)C[N+]1(Cc2ccccc2)CCCC(C(=O)N2CCCCCC2)C1.[Br-]` (stereo not drawn) [Compound 34], the “NaV1.7 Intracellular Inhibition” value was “++ (70-30%)”.

On to `COC(=O)c1cccc(C)c1NC(=O)C[N+]1(Cc2ccccc2)CCCCCC1` [Compound 1], for which the “NaV1.7 Intracellular Inhibition” value is recorded as “++++ (>90%)”.

For the compound `CCOC(=O)c1cccc(C)c1NC(=O)C[N+]1(Cc2ccccc2)CCCCCC1` [Compound 2], the “NaV1.7 Intracellular Inhibition” value is recorded as “++++ (>90%)”.

Take `CC[N+]1(CC(=O)Nc2c(C)cccc2C(=O)OC)CCCC(c2ccccc2)C1` (mixture of isomers) [Compound 65]: the “NaV1.7 Intracellular Inhibition” value is “++++ (>90%)”.

For the compound `CCCCOC(=O)C1CCC[N+](CC)(CC(=O)Nc2c(C)cccc2C(=O)OC)C1.[I-]` (mixture of isomers) [Compound 15], the “NaV1.7 Intracellular Inhibition” value is given as “++ (70-30%)”.

Take `COC(=O)C[N+]1(CC(=O)Nc2c(C)cccc2C(=O)OC)CCCC(c2ccccc2)C1` (mixture of isomers) [Compound 64]: the “NaV1.7 Intracellular Inhibition” value is “++ (70-30%)”.

`CC[N+]1(CC(=O)Nc2c(C)cccc2C(=O)OC)CCCC(C(=O)NC)C1.[I-]` (stereo not drawn) [Compound 46]: the “NaV1.7 Intracellular Inhibition” value is “+ (<30%)”.

In the case of `CCOC(=O)C[N+]1(CC(=O)Nc2c(C)cccc2C(=O)OC)CCCC(c2ccccc2)C1.O=C([O-])C(F)(F)F` (stereo not drawn) [Compound 63], the “NaV1.7 Intracellular Inhibition” value is on record as “+++ (90-70%)”.

Consider `CNC(=O)C1CCC[N+](CC(=O)Nc2c(C)cccc2C(=O)OC)(Cc2ccccc2)C1` (mixture of isomers) [Compound 31], for which the “NaV1.7 Intracellular Inhibition” value is on record as “++ (70-30%)”.

For the compound `CC[N+]1(CC(=O)Nc2c(C)cccc2C(=O)OC)CCCC(C(N)=O)C1.[I-]` (stereo not drawn) [Compound 55], the “NaV1.7 Intracellular Inhibition” value is on record as “+++ (90-70%)”.

With `CCOC(=O)c1cccc(C)c1NC(=O)C[N+]1(Cc2ccccc2)CCCCC1.[Br-]` [Compound 4], the “NaV1.7 Intracellular Inhibition” value is “+++ (90-70%)”.

For `COC(=O)c1cccc(C)c1NC(=O)C[N+]1(Cc2ccccc2)CCCC(C(=O)N2CCCC2)C1` (mixture of isomers) [Compound 43], the “NaV1.7 Intracellular Inhibition” value is listed as “++ (70-30%)”.

On to `CCOC(=O)c1cccc(C)c1NC(=O)C[N+]1(Cc2ccccc2)CCCC1.[Br-]` [Compound 9], for which the “NaV1.7 Intracellular Inhibition” value is “+++ (90-70%)”.

In the case of `COC(=O)c1cccc(C)c1NC(=O)C[N+]1(Cc2ccccc2)CCCC(C(=O)N(C)C)C1` (mixture of isomers) [Compound 40], the “NaV1.7 Intracellular Inhibition” value is “++ (70-30%)”.

Regarding `COC(=O)c1cccc(C)c1NC(=O)C[N+]1(Cc2ccccc2)CCCC(C(=O)NCC(C)C)C1.[Br-]` (stereo not drawn) [Compound 36], the “NaV1.7 Intracellular Inhibition” value is on record as “++ (70-30%)”.

For `COC(=O)c1cccc(C)c1NC(=O)C[N+]1(Cc2ccccc2)CCCC1` [Compound 5], the “NaV1.7 Intracellular Inhibition” value was “++ (70-30%)”.

With `Cc1cccc(C(=O)OC(C)(C)C)c1NC(=O)C[n+]1cccn1C1CCCCC1.[Br-]` [Compound 72], the “NaV1.7 Intracellular Inhibition” value is given as “++ (70-30%)”.

For `Cc1cccc(C(=O)OC(C)C)c1NC(=O)C[N+]1(Cc2ccccc2)CCCCCC1.[Br-]` [Compound 7], the “NaV1.7 Intracellular Inhibition” value is “++++ (>90%)”.

As for `CC[N+]1(CC(=O)Nc2c(C)cccc2C(=O)OC)CCCC(C(=O)OC2CCCCC2)C1` (mixture of isomers) [Compound 27], the “NaV1.7 Intracellular Inhibition” value is reported as “++ (70-30%)”.

Take `CC[N+]1(CC(=O)Nc2c(C)cccc2C(=O)OC)CCCC(C(=O)OCC(C)C)C1.[I-]` (stereo not drawn) [Compound 23]: the “NaV1.7 Intracellular Inhibition” value is on record as “+++ (90-70%)”.

With `CCc1cccc(C[N+]2(C(CC)C(=O)Nc3c(C)cccc3C(=O)OC)CCCCC2)c1.O=C[O-]` (stereo not drawn) [Compound 58], the “NaV1.7 Intracellular Inhibition” value is given as “+++ (90-70%)”.

On to `CCOC(=O)c1cccc(C)c1NC(=O)C[n+]1cccc(-c2ccccc2)c1` [Compound 67], for which the “NaV1.7 Intracellular Inhibition” value is given as “+++ (90-70%)”.

For `COC(=O)c1cccc(C)c1NC(=O)C[N+]1(CC(N)=O)CCCC(c2ccccc2)C1` (mixture of isomers) [Compound 61], the “NaV1.7 Intracellular Inhibition” value is “+++ (90-70%)”.

In the case of `COC(=O)c1cccc(C)c1NC(=O)C[N+]1(CC(=O)N(C)C)CCCC(c2ccccc2)C1.O=C([O-])C(F)(F)F` (stereo not drawn) [Compound 60], the “NaV1.7 Intracellular Inhibition” value is reported as “++ (70-30%)”.

With `COC(=O)c1cccc(C)c1NC(=O)C[n+]1cccn1C1CCCCC1.[Br-]` [Compound 69], the “NaV1.7 Intracellular Inhibition” value is listed as “++ (70-30%)”.

As for `CNC(=O)C[N+]1(CC(=O)Nc2c(C)cccc2C(=O)OC)CCCC(c2ccccc2)C1.[Br-]` (mixture of isomers) [Compound 59], the “NaV1.7 Intracellular Inhibition” value was “+++ (90-70%)”.

For `CCCNC(=O)C1CCC[N+](CC(=O)Nc2c(C)cccc2C(=O)OC)(Cc2ccccc2)C1` (mixture of isomers) [Compound 28], the “NaV1.7 Intracellular Inhibition” value is “++ (70-30%)”.

Turning to `CCCOC(=O)C1CCC[N+](CC)(CC(=O)Nc2c(C)cccc2C(=O)OC)C1.[I-]` (stereo not drawn) [Compound 26], the “NaV1.7 Intracellular Inhibition” value is “++ (70-30%)”.

On to `COC(=O)c1cccc(C)c1NC(=O)C[n+]1cccc(-c2ccccc2)c1.[Br-]` [Compound 66], for which the “NaV1.7 Intracellular Inhibition” value is “+++ (90-70%)”.

In the case of `CC[N+]1(CC(=O)Nc2c(C)cccc2C(=O)OC)CCCC(C(=O)NC2CCCCC2)C1.[I-]` (stereo not drawn) [Compound 56], the “NaV1.7 Intracellular Inhibition” value is reported as “++ (70-30%)”.

Still in this test, the particulars now being: % inhibition at 1 μM test concentration, compound in internal solution, manual whole cell patch clamp; read-out: NaV1.7 Intracellular Inhibition.
The term inhibition denotes how much of the control response was suppressed. On to `CCC(C(=O)Nc1c(C)cccc1C(=O)OC)[N+]1(Cc2ccccc2)CCCCC1` (stereo not drawn) [Compound 57], for which the inhibition at 1 µM was in the range of 30 to 70%.

These data come from patent US10927096B2, “Ester substituted ion channel blockers and methods for use” (Nocion Therapeutics, Inc., priority 2019, dated 2021).
